Experimental findings from PMC9217908, “Screening of commonly prescribed drugs for effects on the CAT1-mediated transport of L-arginine and arginine derivatives” (Amino Acids, 2022) are described below.

Assay in all cases: cell-based
For assay [1], the target named is T1, CAT1 (cationic amino acid transporter 1, CAT1/SLC7A1) (Homo sapiens, UniProt P30825).
T1 construct: full-length human transporter stably transfected in HEK cells (HEK-CAT1); net uptake against HEK-VC vector control cells
Further details: species or system HEK-CAT1 (HEK293 stably transfected); Inhibition of net CAT1-mediated [3H]-L-arginine (100 uM) uptake, 5 min, scintillation counting, vector control subtracted. The settings on record: HEK293, L-arginine 100 uM as substrate; for inhibition at 20 µM: read-out: % Inhibition of L-arginine uptake at 20 µM; for inhibition at 200 µM: read-out: % Inhibition of L-arginine uptake at 200 µM. The method, then: (§1) Uptake and inhibition assays using HEK-CAT1 and HEK-VC cells and L-arginine, L-homoarginine, and ADMA as substrates were performed using the protocol described (Strobel et al. [2012]; Chafai et al. [2017]). Briefly, after incubation, the supernatant was replaced with transport buffer containing [^3H]- L-arginine for 5 min and 2.5 min for medium containing [^3H]-L-homoarginine or [^3H]-ADMA with or without the test compound. The reference drugs were screened at concentrations of 20 µM (Figs. 1A, 2A, and 3A) and 200 µM (Figs. 1B, 2B, and 3B). […] The net uptake was determined by subtracting the total amount taken up by control cells from the amount taken up by CAT1-expressing cells, which was expressed as a percentage of the amount taken up by the control. To determine the inhibitory effects of the drugs on CAT1-mediated transport of L-arginine, L-homoarginine, or ADMA, the control was measured in the absence of the potential inhibitor. The value for the percent inhibition was calculated as: Inhibition (%) = 100 – (V/V0 ^* 100), where V and V0 are the net uptake rates (uptake into HEK-CAT1 cells—uptake into HEK-VC cells) with and without test drugs, respectively. […] Each bar represents the effect of one compound on CAT1-mediated L-arginine (100 μM) uptake as percent inhibition. Data were obtained from at least two independent experiments performed in triplicate (n = 6–9) and each test data from the independent experiment were normalized to the respective control data to get the value of percent inhibition. Negative inhibition values indicate stimulated CAT1-mediated uptake. Data were analyzed using one-way ANOVA and Dunnett’s multiple comparison test with p < 0.05. Bars showing a statistically significant inhibition or transport stimulation are shaded in black

Assay [2] deals with T1, CAT1 (cationic amino acid transporter 1, CAT1/SLC7A1). Further details: species or system HEK-CAT1 (HEK293 stably transfected); Inhibition of net CAT1-mediated [3H]-L-homoarginine (1 uM) uptake, 2.5 min, scintillation counting, vector control subtracted. The settings on record: HEK293, L-homoarginine 1 uM as substrate; for inhibition at 20 µM: read-out: % Inhibition of L-homoarginine uptake at 20 µM; for inhibition at 200 µM: read-out: % Inhibition of L-homoarginine uptake at 200 µM. How it is done:
as §1, with “L-homoarginine (1” for “L-arginine (100”

Assay [3] has the same target. Further details: species or system HEK-CAT1 (HEK293 stably transfected); Inhibition of net CAT1-mediated [3H]-ADMA (1 uM) uptake, 2.5 min, scintillation counting, vector control subtracted. Conditions: HEK293, ADMA 1 uM as substrate; for inhibition at 20 µM: read-out: % Inhibition of ADMA uptake at 20 µM; for inhibition at 200 µM: read-out: % Inhibition of ADMA uptake at 200 µM. How it is done:
as §1, with “ADMA (1” for “L-arginine (100”

Where two headings read alike, the source gives them in different places.

T1 sequence (P30825 whole entry): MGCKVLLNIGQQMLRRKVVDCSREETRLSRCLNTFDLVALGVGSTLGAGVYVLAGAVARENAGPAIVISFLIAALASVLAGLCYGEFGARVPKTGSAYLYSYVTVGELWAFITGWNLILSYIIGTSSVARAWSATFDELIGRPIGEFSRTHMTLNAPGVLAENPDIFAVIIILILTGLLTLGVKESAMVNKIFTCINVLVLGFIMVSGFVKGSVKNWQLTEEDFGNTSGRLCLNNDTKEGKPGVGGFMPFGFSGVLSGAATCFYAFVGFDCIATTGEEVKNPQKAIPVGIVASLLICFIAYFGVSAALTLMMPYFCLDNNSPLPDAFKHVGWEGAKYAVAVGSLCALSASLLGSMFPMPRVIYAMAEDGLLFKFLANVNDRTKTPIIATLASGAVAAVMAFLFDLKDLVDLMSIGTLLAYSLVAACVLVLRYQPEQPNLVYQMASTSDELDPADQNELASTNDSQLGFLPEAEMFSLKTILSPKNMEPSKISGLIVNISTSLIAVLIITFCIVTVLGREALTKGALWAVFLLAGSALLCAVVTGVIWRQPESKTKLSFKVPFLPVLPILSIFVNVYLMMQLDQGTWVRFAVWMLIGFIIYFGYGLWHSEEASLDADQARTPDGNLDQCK

The inhibition is the drop in the measured response relative to a control, in per cent. On to `CC(CN1c2ccccc2Sc2ccccc21)N(C)C` (stereo not shown) [Promethazine], for which the values for the inhibition at 20 µM in assay [1], in assay [2] and in assay [3] were -1.3 ± 7.1%, 4.3 ± 2% and 4.2 ± 2%, respectively. For the same molecule, the inhibition at 200 µM in assay [1] is 14.4 ± 6%; in assay [2], 14 ± 0.9%; in assay [3] it was -9.2 ± 1.2%.
Consider `C[C@]12CC[C@@H]3c4ccc(O)cc4CC[C@H]3[C@@H]1CC[C@@H]2O` [Beta estradiol], for which the inhibition at 20 µM is 0.3 ± 4.5% in assay [1], -0.1 ± 4.2% in assay [2] and -9.8 ± 7.2% in assay [3]. Further, the results for the inhibition at 200 µM in assay [1], in assay [2] and in assay [3] were -19.1 ± 7.2%, -13.7 ± 11.3% and -32.9 ± 6.4%, respectively.
Regarding `CN(C)CCCN1c2ccccc2CCc2ccccc21` [Imipramine], the inhibition at 20 µM in assay [1] is 0.08 ± 4.8%; in assay [2], -3.1 ± 1.6%; in assay [3], -4.3 ± 2.1%. For the same molecule, the inhibition at 200 µM in assay [1] stood at 22.6 ± 5.7%; in assay [2], 15 ± 2.1%; in assay [3], 14.1 ± 4.1%.
For `CC#C[C@]1(O)CC[C@H]2[C@@H]3CCC4=CC(=O)CCC4=C3[C@@H](c3ccc(N(C)C)cc3)C[C@@]21C` [Mifepristone], the inhibition at 20 µM in assay [1] is 24.6 ± 0.6%; in assay [2], 8.5 ± 11.1%; in assay [3], 8.1 ± 11.4%. Also, the results for the inhibition at 200 µM in assay [1], in assay [2] and in assay [3] were -19.9 ± 4.4%, -15 ± 1.6% and 5.6 ± 3.7%, respectively.
On to `Cc1ncc([N+](=O)[O-])n1CCO` [Metronidazole], for which the inhibition at 20 µM in assay [1] is 7.7 ± 1.9%; in assay [2], -4.7 ± 2%; in assay [3], -3.1 ± 2%. In addition, the inhibition at 200 µM in assay [1] is 2.6 ± 3.7%; in assay [2], 0.8 ± 2.2%; in assay [3], -16.6 ± 0.4%.
`C=C[C@H]1CN2CC[C@H]1C[C@@H]2[C@@H](O)c1ccnc2ccc(OC)cc12` [Quinidine]: the inhibition at 20 µM in assay [1] was 29.1 ± 2.8%; in assay [2], 4.4 ± 6.2%; in assay [3], 4.4 ± 6.2%. Further, the inhibition at 200 µM in assay [1] was 2.7 ± 1%; in assay [2], 5.9 ± 1.9%; in assay [3], -19.6 ± 7.7%.
Take `C[C@@H]1CCC[C@H](C)N1NC(=O)c1ccc(Cl)c(S(N)(=O)=O)c1` [Clopamide]: the results for the inhibition at 20 µM in assay [1], in assay [2] and in assay [3] were 4.5 ± 1.9%, -14.3 ± 2.1% and -11.1 ± 2.3%, respectively. Besides, the inhibition at 200 µM in assay [1] amounted to 23.4 ± 2.5%; in assay [2], 14.3 ± 2.2%; in assay [3] it was 11.6 ± 6.5%.
Consider `COc1ccc([C@@H]2Sc3ccccc3N(CCN(C)C)C(=O)[C@@H]2OC(C)=O)cc1` [Diltiazem], for which the inhibition at 20 µM is -7.3 ± 7.7% in assay [1], 8.6 ± 4.3% in assay [2] and 8.5 ± 4.3% in assay [3]. Moreover, the inhibition at 200 µM in assay [1] worked out at 29.3 ± 2.5%; in assay [2] it was 29 ± 2.6%; in assay [3], 9.1 ± 7.7%.
On to `C[C@@H](O)[C@H]1C(=O)N2C(C(=O)O)=C(S[C@@H]3CN[C@H](C(=O)Nc4cccc(C(=O)O)c4)C3)[C@H](C)[C@H]12` [Ertapenem], for which the inhibition at 20 µM is -28.9 ± 4.8% in assay [1], -28.5 ± 4.8% in assay [2] and -4.1 ± 6% in assay [3]. For the same molecule, the inhibition at 200 µM is -15.8 ± 5.9% in assay [1], -15.1 ± 1.6% in assay [2] and 9.9 ± 3.1% in assay [3].
Turning to `COC(=O)[C@H]1[C@H]2C[C@@H]3c4[nH]c5cc(OC)ccc5c4CCN3C[C@H]2C[C@@H](OC(=O)c2cc(OC)c(OC)c(OC)c2)[C@@H]1OC` [Reserpine], the inhibition at 20 µM in assay [1] came to 4.7 ± 7.9%; in assay [2], 5 ± 7.5%; in assay [3], 9 ± 2.6%. Besides, the inhibition at 200 µM came out at 5.2 ± 2.9% in assay [1], 12.5 ± 1.7% in assay [2] and 24.2 ± 0.6% in assay [3].
As for `NC(=O)N1c2ccccc2C=Cc2ccccc21` [Carbamazepine], the inhibition at 20 µM amounted to 17.8 ± 4.1% in assay [1], 18.9 ± 3.5% in assay [2] and 4.8 ± 2.1% in assay [3]. Besides, the inhibition at 200 µM in assay [1] came to 0.7 ± 4.3%; in assay [2], 12.7 ± 3.9%; in assay [3], 12.8 ± 4.2%.
In the case of `CCOC(=O)[C@H](CCc1ccccc1)N[C@@H](C)C(=O)N1CCC[C@H]1C(=O)O` [Enalapril], the inhibition at 20 µM in assay [1] turned out to be 9.9 ± 8.3%; in assay [2], 12.7 ± 4.6%; in assay [3], 27.2 ± 2.1%. The inhibition at 200 µM in assay [1] was -1.5 ± 1.6%; in assay [2] it was -9.5 ± 1.2%; in assay [3], 5.3 ± 1.8%.
As for `CCOC(=O)C1=C(C)NC(C)=C(C(=O)OC)C1c1cccc(Cl)c1Cl` (stereo not shown) [Felodipine], the inhibition at 20 µM in assay [1] is -2.2 ± 5.9%; in assay [2], -9.6 ± 2.8%; in assay [3] it was -7.4 ± 4.4%. Moreover, the values for the inhibition at 200 µM in assay [1], in assay [2] and in assay [3] were -39.2 ± 1.4%, -18.2 ± 1% and 3.6 ± 2.1%, respectively.
As for `CCC(C)(C)C(=O)O[C@H]1C[C@@H](C)C=C2C=C[C@H](C)[C@H](CC[C@@H]3C[C@@H](O)CC(=O)O3)[C@H]21` [Simvastatin], in assay [1], the inhibition at 20 µM was -4.1 ± 0.6% and the inhibition at 200 µM is -10.5 ± 3.3%. In assay [3], the inhibition at 20 µM was -18.1 ± 15% and the inhibition at 200 µM is -4.2 ± 3.5%.
Turning to `CC[C@H]1OC(=O)[C@H](C)[C@@H](O[C@H]2C[C@@](C)(OC)[C@@H](O)[C@H](C)O2)[C@H](C)[C@@H](O[C@@H]2O[C@H](C)C[C@H](N(C)C)[C@H]2O)[C@](C)(O)C[C@@H](C)CN(C)[C@H](C)[C@@H](O)[C@]1(C)O` [Azithromycin], the inhibition at 20 µM in assay [1] was found to be 7 ± 7.2%; in assay [2] it was 20.8 ± 3.3%; in assay [3], 2.8 ± 3.4%. In addition, the values for the inhibition at 200 µM in assay [1], in assay [2] and in assay [3] were 16.7 ± 5.2%, 26.8 ± 2.3% and 12.9 ± 3.7%, respectively.
